Source: BindingDB's records for doi:10.1124/jpet.102.046128 (Bristol-Myers Squibb Pharmaceuticals Research Institute, 2003)
Several values for one entry are separate records, joined by “and”; a condition that tells them apart may be missing. Equal values may be shown once.

Target: T1, Corticotropin-releasing factor receptor 1 (Homo sapiens, UniProt P34998)
T1 sequence (P34998 whole entry): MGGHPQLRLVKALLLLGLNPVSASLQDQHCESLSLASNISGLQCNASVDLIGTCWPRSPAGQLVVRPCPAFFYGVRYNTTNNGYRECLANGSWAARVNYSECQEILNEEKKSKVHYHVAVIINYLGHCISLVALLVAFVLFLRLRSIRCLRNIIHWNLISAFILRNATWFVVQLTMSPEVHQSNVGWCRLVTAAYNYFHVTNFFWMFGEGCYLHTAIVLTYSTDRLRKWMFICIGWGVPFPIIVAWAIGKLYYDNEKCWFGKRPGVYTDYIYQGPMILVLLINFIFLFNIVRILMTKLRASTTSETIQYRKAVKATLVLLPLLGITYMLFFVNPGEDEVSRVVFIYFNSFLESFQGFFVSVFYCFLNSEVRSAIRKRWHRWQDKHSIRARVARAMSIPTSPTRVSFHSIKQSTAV

Compound | Ki
CCC(COC)n1nnc2c(Nc3ccc(OC)cc3C)nc(C)cc21 (stereo unspecified) | 6.8 nM and 4.9 nM
H-DLTFHLLREMLEMAKAEQEAEQAALNRLLLEEA-NH2 [NSC_0] | > 1000 nM
CC[C@H](C)[C@H](NC(=O)[C@H](CC(=O)O)NC(=O)[C@H](CC(C)C)NC(=O)[C@H](CC(C)C)NC(=O)[C@H](CCCCN)NC(=O)[C@H](CCCN=C(N)N)NC(=O)[C@H](CC(N)=O)NC(=O)[C@H](CO)NC(=O)[C@H](Cc1cnc[nH]1)NC(=O)[C@H](C)NC(=O)[C@H](CCC(N)=O)NC(=O)[C@H](CCC(N)=O)NC(=O)[C@H](C)NC(=O)[C@H](CC(C)C)NC(=O)[C@H](CCC(N)=O)NC(=O)[C@H](CC(=O)O)NC(=O)[C@H](C)NC(=O)[C@H](CCCCN)NC(=O)[C@@H](NC(=O)[C@H](CCSC)NC(=O)[C@H](CCC(=O)O)NC(=O)[C@H](CC(C)C)NC(=O)[C@@H](NC(=O)[C@H](CCC(=O)O)NC(=O)[C@H](CCCN=C(N)N)NC(=O)[C@H](CC(C)C)NC(=O)[C@H](CC(C)C)NC(=O)[C@H](Cc1cnc[nH]1)NC(=O)[C@H](Cc1ccccc1)NC(=O)[C@@H](NC(=O)[C@H](CC(C)C)NC(=O)[C@H](CC(=O)O)NC(=O)[C@H](CC(C)C)NC(=O)[C@H](CO)NC(=O)[C@@H](NC(=O)[C@@H]1CCCN1C(=O)[C@@H]1CCCN1C(=O)[C@H](CCC(=O)O)NC(=O)[C@H](CCC(N)=O)NC(=O)[C@@H](N)CO)[C@@H](C)CC)[C@@H](C)O)C(C)C)[C@@H](C)O)C(=O)N[C@@H](C)C(N)=O [NSC_0] | 3.3 nM and 23.1 nM

Further lines, results first:

Ki | Compound
2.8 nM | COCC(COC)Nc1nc(C)nc2c(-c3ccc(Cl)cc3Cl)c(C)nn12 [DMP696]
0.4 nM | CCC(CC)Nc1cc(C)nc2c(-c3ccc(OC)cc3C)c(C)nn12
1.2 nM and 0.4 nM | CCCCN(CC)c1nc(C)nc2c1c(C)cn2-c1c(C)cc(C)cc1C
